The source of these data is patent US20250092039A1, “GLUTARIMIDE-CONTAINING PAN-KRAS-MUTANT DEGRADER COMPOUNDS AND USES THEREOF” (Tiger Biotherapeutics Inc., priority 2022, published 2025).

The structures appear in SMILES notation. Where two headings read alike, the source gives them in different places.

The target in one data set is KRAS-G12V/RAF1 (Homo sapiens (Human), UniProt P01116, G12V). The experiment in a line: KRAS/RAF1 binding inhibition assay (AlphaScreen). A digest of the protocol:
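Binding of GppNHp-loaded KRAS G12V to the RAF1 RBD was measured by AlphaScreen with test compound present in 2% DMSO (final), 60 min incubation at 4° C. Signals were converted to % inhibition versus DMSO, and IC50 was obtained by variable-slope nonlinear regression.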

The next data set addresses KRAS G12V (Homo sapiens (Human), UniProt P01116, G12V). The experiment in a line: KRAS G12V degradation in SW620 cells (Western blot, DC50). The format is cell-based. The note with it: 24 hours. A digest of the protocol: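 SW620 cells (homozygous KRAS G12V) were treated with compound for 24 hours at 37° C. KRAS in lysates was measured by Western blot with fluorescent secondary antibodies and expressed relative to DMSO vehicle (100%). DC50 came from a four-parameter variable-slope dose-response fit.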

The next data set deals with SW620 cells. Kind of data set: 3D cell growth inhibition of SW620 cells carrying endogenous KRAS G12V mutation (CellTiter-Glo 3D, GI50). In kind it is cell-based. The note with it: Homo sapiens, SW-620, 144 h, read-out: SW620 3D cell growth GI50. Put shortly:
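SW620 cells (endogenous KRAS G12V) grown in 3D were dosed next day with compound from DMSO stocks at various concentrations, then incubated 6 days at 37° C.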

The nature of data set [1]: Pharmacokinetics following single intravenous and oral gavage dosing (AUC0-24h). In kind it is in vivo. The note with it: mouse, plasma, male CD-1 mice. A digest of the protocol:
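Male CD-1 mice (3 per route) given a single iv (5 mL/kg) or oral gavage (10 mL/kg) dose in 10% DMSO/30% PEG400/60% aqueous 20% hydroxypropyl-β-cyclodextrin. Plasma sampled to 24 h and measured by LC/MS/MS. PK parameters derived by non-compartmental analysis.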

Chain of KRAS G12V (P01116-2 other isoform, or with tags, fused parts or gaps G12V): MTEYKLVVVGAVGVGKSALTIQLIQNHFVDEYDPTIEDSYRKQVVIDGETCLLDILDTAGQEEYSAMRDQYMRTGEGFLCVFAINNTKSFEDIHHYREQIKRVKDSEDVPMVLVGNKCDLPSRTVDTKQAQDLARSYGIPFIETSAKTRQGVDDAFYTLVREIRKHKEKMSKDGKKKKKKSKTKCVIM
Chain of KRAS-G12V/RAF1 (P01116-2 other isoform, or with tags, fused parts or gaps G12V): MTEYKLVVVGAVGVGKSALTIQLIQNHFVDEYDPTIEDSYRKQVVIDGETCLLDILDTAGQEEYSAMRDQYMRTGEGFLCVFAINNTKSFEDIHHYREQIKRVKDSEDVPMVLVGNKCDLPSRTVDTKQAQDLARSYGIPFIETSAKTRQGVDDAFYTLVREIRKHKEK

Consider `CCc1c(F)ccc2cc(O)cc(-c3ncc4c(N5CCC[C@]6(CCO6)C5)nc(OCC5(CN6CCC7(CC6)CC(F)(CN6CCN(c8ccc9c(c8)CN([C@H]8CCC(=O)NC8=O)C9=O)CC6)C7)CC5)nc4c3F)c12` [Compound 214, (S)-3-(5-(4-((7-((1-(((7-(8-ethyl-7-fluoro-3-hydroxynaphthalen-1-yl)-8-fluoro-4-((S)-1-oxa-6-azaspiro[3.5]nonan-6-yl)pyrido[4,3-d]pyrimidin-2-yl)oxy)methyl)cyclopropyl)methyl)-2-fluoro-7-azaspiro[3.5]nonan-2-yl)methyl)piperazin-1-yl)-1-oxoisoindolin-2-yl)piperidine-2,6-dione], for which, on KRAS-G12V/RAF1, the IC50 lay within 20 to 200 nM. On KRAS G12V, this compound came in with a 50% degradation concentration (DC50) of under 1 nM. Moreover, the GI50 with SW620 cells (SW620 cells, 6 days) is under 10 nM. This compound returned an AUC(0-t) in data set [1] (single oral dose 30 mg/Kg) of 1460 ng·h/mL.
For the compound `CCc1cccc2cc(O)cc(-c3ncc4c(N5CCC[C@@](C)(O)C5)nc(OCC5(CN6CCC(F)(CN7CCN(c8ccc9c(c8)CN([C@H]8CCC(=O)NC8=O)C9=O)CC7)CC6)CC5)nc4c3F)c12` [Compound 33, (S)-3-(5-(4-((1-((1-(((7-(8-ethyl-3-hydroxynaphthalen-1-yl)-8-fluoro-4-((R)-3-hydroxy-3-methylpiperidin-1-yl)pyrido[4,3-d]pyrimidin-2-yl)oxy)methyl)cyclopropyl)methyl)-4-fluoropiperidin-4-yl)methyl)piperazin-1-yl)-1-oxoisoindolin-2-yl)piperidine-2,6-dione], the IC50 on KRAS-G12V/RAF1 is 20 to 200 nM. This compound registered a DC50 on KRAS G12V of under 1 nM. Further, the GI50 in the data set on SW620 cells (SW620 cells, 6 days) is under 10 nM. The AUC(0-t) in data set [1] (single oral dose 30 mg/Kg) amounted to 509 ng·h/mL.
The compound `CCc1c(F)ccc2cc(O)cc(-c3ncc4c(N5CCC[C@@](C)(O)C5)nc(OCC5(CN6CCC7(CC6)CC(F)(CN6CCN(c8ccc9c(c8)CN([C@H]8CCC(=O)NC8=O)C9=O)CC6)C7)CC5)nc4c3F)c12` [Compound 134, (S)-3-(5-(4-((7-((1-(((7-(8-ethyl-7-fluoro-3-hydroxynaphthalen-1-yl)-8-fluoro-4-((R)-3-hydroxy-3-methylpiperidin-1-yl)pyrido[4,3-d]pyrimidin-2-yl)oxy)methyl)cyclopropyl)methyl)-2-fluoro-7-azaspiro[3.5]nonan-2-yl)methyl)piperazin-1-yl)-1-oxoisoindolin-2-yl)piperidine-2,6-dione] yielded an IC50 on KRAS-G12V/RAF1 of 20 to 200 nM. The compound also had a DC50 on KRAS G12V of under 1 nM. Further, in the data set with SW620 cells, the 50% growth inhibitory concentration (GI50) was under 10 nM. Besides, the figures for the AUC(0-t) in data set [1] (single oral dose 30 mg/Kg) and in data set [1] (single oral dose 50 mg/Kg) were 982 ng·h/mL and 1940 ng·h/mL, respectively.
